These results are taken from patent US20220071205A1, “HERBICIDE” (UPL LTD, priority 2018, published 2022).

SMILES strings stand for the structures.

For assay [1], the system named is winter wheat. In words: Normalised plant growth of winter wheat at another site (Example 1, FIG. 2). The class given is in vivo. Conditions: pre-em. The procedure: Similar experiments were carried out at another site where the effect of seed depth was to be determined, see Example 3 below. Control experiments were conducted with the conventional herbicides Trooper and Xerton, as defined above.

In assay [2] the test system is winter wheat. Briefly: Normalised plant count of winter wheat, field trials (Example 1, FIG. 1). Format: in vivo. Conditions: average of 6 field trials. As to the method:
A herbicide composition consisting of an SC of 450 g/L napropamide-m was applied to winter wheat either pre- or post-emergence. The normalised plant count was determined as a percentage of the plant count observed in the absence of the herbicide. Control experiments were conducted with the conventional herbicide Trooper, as defined above.
Results from an average of 6 field trials (napropamide; Trooper low dose: 4 sites; Trooper high dose: 2 sites) with herbicide application in October are shown in FIG. 1. […] Plant survival after emergence was 100% of the survival rate in the absence of napropamide.

On to `CCN(CC)C(=O)C(C)Oc1cccc2ccccc12` (stereo not drawn) [napropamide, N,N-diethyl-2-(α-naphthoxy) propionamide], for which the “Plant survival after emergence” value in assay [1] is “comparable with that following application of conventional herbicides Trooper/Malibu and Xerton”; in assay [2] (% of the survival rate in the absence of napropamide), 100%. The results for the “effect on the growth of winter wheat” value in assay [1] and in assay [2] (herbicide application in October) were “very low effect” and “no detectable effect”, respectively.
